From article PMC12431657, “Discovery and mechanistic insights of dibenzoylmethane as a broad spectrum inhibitor of coronavirus” (PLOS Pathogens, 2025)
Several values for one entry are separate records, joined by “and”; a condition that tells them apart may be missing. Identical values can stand only once. Like-named read-outs stand apart in the source and are kept apart here. Peptide text beside a SMILES is read from it. * marks the point of attachment. Cbz = O=C(OCc1ccccc1)*; CH2F = FC*

Tests used:
HCoV-229E [1] = test: Antiviral activity in vitro, viral RNA copies by qRT-PCR, HCoV-229E in Huh-7 cells; type: cell-based; details: for EC50: Human coronavirus 229E, Huh-7, 24 h, read-out: EC50 HCoV-229E (Huh-7)
HCoV-OC43 [2] = details: for number of viral RNA copies in HCoV-OC43-infected mice: columbianadin 50 mpk QD, erythromycin estolate 300 mpk QD
HCoV-OC43 [3] = test: Antiviral activity in vitro, qRT-PCR, HCoV-OC43 in Huh-7 cells; type: cell-based; details: for EC50: Betacoronavirus 1, OC43, Huh-7, 24 h, read-out: EC50 HCoV-OC43 (Huh-7); for HCoV-OC43, Huh-7: inhibition at the concentration (Fig2B): replicates
HCoV-OC43 [4] = test: Antiviral activity in vitro, qRT-PCR, HCoV-OC43 in RD cells; type: cell-based; details: for EC50: Betacoronavirus 1, OC43, RD, 24 h, read-out: EC50 HCoV-OC43 (RD)
airway inflammation = details: 50 mpk; cited from earlier work
HCoV-229E [5] = test: Antiviral activity in vitro, qRT-PCR, HCoV-229E in MRC-5 cells; type: cell-based; details: for EC50: Human coronavirus 229E, MRC5, 24 h, read-out: EC50 HCoV-229E (MRC-5); for HCoV-229E, MRC-5: inhibition at the concentration (Fig2B): replicates
[6] = erythromycin estolate exceeding 300 mpk, veratramine exceeding 10 mpk; cited from earlier work
caspase-6 = biological target: T1, caspase-6 (Homo sapiens, UniProt P55212); type: cell-based
T1 construct: endogenous in cells
T1 sequence (P55212 24-293): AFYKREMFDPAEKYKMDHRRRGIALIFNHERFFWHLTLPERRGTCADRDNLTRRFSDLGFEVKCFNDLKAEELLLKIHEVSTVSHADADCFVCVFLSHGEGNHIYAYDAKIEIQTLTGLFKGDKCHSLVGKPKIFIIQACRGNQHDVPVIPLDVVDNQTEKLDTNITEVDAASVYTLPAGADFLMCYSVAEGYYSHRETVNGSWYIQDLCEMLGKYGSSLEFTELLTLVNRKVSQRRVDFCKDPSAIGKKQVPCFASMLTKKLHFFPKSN

HCoV-OC43 [7] = test: HCoV-OC43 nucleocapsid protein and caspase-6 in infected cells (Western blot); type: cell-based; details: cells pretreated with serially diluted compound
HCoV-OC43 [8] = type: cell-based
Huh-7 cells [9] = system: Huh-7 cells; design: unit not given beside the values
Huh-7 cells [10] = test: Cytotoxicity assay (CCK-8), Huh-7 cells
[11] = conc. 0.1 (unit not given), replicates
[12] = conc. 0.2 (unit not given), replicates
[13] = conc. 0.7 (unit not given), replicates
[14] = conc. 2.2 (unit not given), replicates
[15] = conc. 6.7 (unit not given), replicates
[16] = conc. 20 (unit not given), replicates

Structure (SMILES)	EC50 (HCoV-229E [1])	EC50 (229E, Huh-7): inhibition at the concentration (HCoV-229E [1]; [11])	EC50 (229E, Huh-7): inhibition at the concentration (HCoV-229E [1]; [12])	EC50 (229E, Huh-7): inhibition at the concentration (HCoV-229E [1]; [13])	EC50 (229E, Huh-7): inhibition at the concentration (HCoV-229E [1]; [14])	EC50 (229E, Huh-7): inhibition at the concentration (HCoV-229E [1]; [15])	EC50 (229E, Huh-7): inhibition at the concentration (HCoV-229E [1]; [16])	number of viral RNA copies in HCoV-OC43-infected mice (HCoV-OC43 [2])	EC50 (HCoV-OC43 [3])	HCoV-OC43, Huh-7: inhibition at the concentration (Fig2B) (HCoV-OC43 [3]; conc. 0.2 (unit not given))	HCoV-OC43, Huh-7: inhibition at the concentration (Fig2B) (HCoV-OC43 [3]; conc. 0.7 (unit not given))	HCoV-OC43, Huh-7: inhibition at the concentration (Fig2B) (HCoV-OC43 [3]; conc. 2.2 (unit not given))	HCoV-OC43, Huh-7: inhibition at the concentration (Fig2B) (HCoV-OC43 [3]; conc. 6.7 (unit not given))	HCoV-OC43, Huh-7: inhibition at the concentration (Fig2B) (HCoV-OC43 [3]; conc. 20.0 (unit not given))	EC50 (HCoV-OC43 [4])	EC50 (OC43, RD): inhibition at the concentration (HCoV-OC43 [4]; [11])	EC50 (OC43, RD): inhibition at the concentration (HCoV-OC43 [4]; [13])	EC50 (OC43, RD): inhibition at the concentration (HCoV-OC43 [4]; [14])	EC50 (OC43, RD): inhibition at the concentration (HCoV-OC43 [4]; [15])	EC50 (HCoV-229E [5])	also measured
C/C=C(/C)C(=O)OC(C)(C)[C@@H]1Cc2c(ccc3ccc(=O)oc23)O1 [Columbianadin, columbianadin]	< 80 nM	58.8 and 59.6 and 58	70.5 and 77.4 and 76.1	68 and 72.5 and 61.2	74.2 and 70.6 and 86.9	89.7 and 91.5 and 80.4	92.4 and 94.9 and 95	did not significantly reduce	190 nM	30.0 and 36.0 and 38.1	73.5 and 75.0 and 75.6	94.2 and 94.1 and 94.4	98.5 (2×) and 98.6	98.4 and 98.3 (2×)	2220 nM	-25.3 and -42.7 and -34.3	-23.9 and 2.7 and -3.5	49.6 and 48.7 and 52.3	93.7 and 94.2 and 94.0	1550 nM	Body weight changes (HCoV-OC43 [2]; Columbianadin 50 mpk oral QD, day 0, one value per mouse): 99.0 (4×) and 102.0 (2×); HCoV-OC43, Huh-7: inhibition at the concentration (Fig2B) (HCoV-OC43 [3]; conc. 0.1 (unit not given)): 48.4 and 50.8 (2×); EC50 (OC43, RD): inhibition at the concentration (HCoV-OC43 [4]; [16]): 99.8; airway inflammation in mice (airway inflammation): suppress airway inflammation; HCoV-229E, MRC-5: inhibition at the concentration (Fig2B) (HCoV-229E [5]; conc. 0.1 (unit not given)): 35.3 and 18.1 and 41.4; HCoV-229E, MRC-5: inhibition at the concentration (Fig2B) (HCoV-229E [5]; conc. 0.2 (unit not given)): 32.0 and 58.2; HCoV-229E, MRC-5: inhibition at the concentration (Fig2B) (HCoV-229E [5]; conc. 0.7 (unit not given)): 17.5 and 18.6 and 52.2; HCoV-229E, MRC-5: inhibition at the concentration (Fig2B) (HCoV-229E [5]; conc. 2.2 (unit not given)): 63.2 and 52.3 and 54.8; HCoV-229E, MRC-5: inhibition at the concentration (Fig2B) (HCoV-229E [5]; conc. 6.7 (unit not given)): 83.3 and 82.1 and 80.5; HCoV-229E, MRC-5: inhibition at the concentration (Fig2B) (HCoV-229E [5]; conc. 20.0 (unit not given)): 94.9 and 92.9 and 95.1
CCC(=O)O[C@H]1[C@H](O[C@@H]2[C@@H](C)[C@H](O[C@H]3C[C@@](C)(OC)[C@@H](O)[C@H](C)O3)[C@@H](C)C(=O)O[C@H](CC)[C@@](C)(O)[C@H](O)[C@@H](C)C(=O)[C@H](C)C[C@@]2(C)O)O[C@H](C)C[C@@H]1N(C)C [Erythromycin estolate, erythromycin estolate, reference compound]	3040 nM	56.8 and 60.1 and 43.4	31.4 and 41.8 and 52.9	61.1 and 42.4 and 25.7	61.7 and 57.1 and 74.9	79.9 and 80.4 and 68.3	82.8 and 90.2 and 91.5	did not significantly reduce	730 nM	18.4 and 11.5 and -3.5	62.9 and 63.5 and 57.4	73.5 and 73.6 and 72.3	95.6 and 95.5 and 95.7	98.3 (2×) and 98.1	460 nM	-62.2 and -76.2 (2×)	73.9 and 79.2 and 79.3	69.6 and 71.7 and 71.9	83.9 and 85 and 84.5	9210 nM	EC50 (OC43, RD): inhibition at the concentration (HCoV-OC43 [4]; [12]): 31.5 and 23.3 and 28; EC50 (OC43, RD): inhibition at the concentration (HCoV-OC43 [4]; [16]): 98.4 and 98.5; HCoV-229E, MRC-5: inhibition at the concentration (Fig2B) (HCoV-229E [5]; conc. 0.1 (unit not given)): 0.6 and 0.5 and 1.3; HCoV-229E, MRC-5: inhibition at the concentration (Fig2B) (HCoV-229E [5]; conc. 0.2 (unit not given)): 18.6 and 2.4 and -3.2; HCoV-229E, MRC-5: inhibition at the concentration (Fig2B) (HCoV-229E [5]; conc. 0.7 (unit not given)): 2.2 and 1.5 and 26.7; HCoV-229E, MRC-5: inhibition at the concentration (Fig2B) (HCoV-229E [5]; conc. 2.2 (unit not given)): 3.2 and -1.4 and 0.1; HCoV-229E, MRC-5: inhibition at the concentration (Fig2B) (HCoV-229E [5]; conc. 6.7 (unit not given)): 0.7 and 0.9 and 1.2; HCoV-229E, MRC-5: inhibition at the concentration (Fig2B) (HCoV-229E [5]; conc. 20.0 (unit not given)): 90.1 and 91.7 and 86.2; safe use in antitumour mouse models [6]: safely used
Cc1c([C@H](C)[C@@H]2NC[C@@H](C)C[C@H]2O)ccc2c1C[C@H]1[C@H]2CC=C2C[C@@H](O)CC[C@@]21C [Veratramine, veratramine]	< 80 nM	–	–	–	–	–	–	–	< 80 nM	–	–	–	–	–	250 nM	–	–	–	–	600 nM	EC50 (229E, Huh-7): inhibition at the concentration (HCoV-229E [1]): 93.4; Body weight changes (HCoV-OC43 [2]; mouse, in vivo): 98.5; EC50 (OC43, RD): inhibition at the concentration (HCoV-OC43 [4]): 99.8 and 99.2; safe use in antitumour mouse models [6]: safely used
CC[C@H](C)[C@H](NC(=O)[C@H](CCC(=O)OC)NC(=O)[C@@H](NC(=O)OCc1ccccc1)C(C)C)C(=O)N[C@@H](CC(=O)OC)C(=O)CF [Z-VEID-FMK, reference compound] (Cbz-VE(OMe)ID(OMe)-CH2F)	–	–	–	–	–	–	–	–	–	–	–	–	–	–	–	–	–	–	–	–	Caspase-6 activity (Fig5J) (caspase-6; time point 0, replicates): 8.3 and 9.2 and 8.8; Caspase-6 activity (Fig5J) (caspase-6; time point 2, replicates): 12.5 and 11.5 and 12.1; Caspase-6 activity (Fig5J) (caspase-6; time point 4, replicates): 11.7 and 13.0 (2×); Caspase-6 activity (Fig5J) (caspase-6; time point 6, replicates): 9.9 and 10.2 and 9.5; Caspase-6 activity (Fig5J) (caspase-6; time point 8, replicates): 9.8 and 9.0 and 8.1; virus replication (nucleocapsid protein, Western blot) (HCoV-OC43 [7]): inhibited virus replication; antiviral activity in CASP6 knockout cell pools (HCoV-OC43 [8]; RD cells): decreased; Viral inhibition (Fig5K) (HCoV-OC43 [8]; concentration 2, RD-Scramble cells): 58.3 and 64.9 and 64.7; Viral inhibition (Fig5K) (HCoV-OC43 [8]; concentration 20, RD-Scramble cells): 67.9 and 79.5 and 81.6
CCC/C=C1\OC(=O)C2=C1CC[C@H]1[C@H]3C=C4C(=O)O/C(=C\CCC)[C@@]4(CC3)[C@@H]21 [levistolide A]	–	–	–	–	–	–	–	–	–	–	–	–	–	–	–	–	–	–	–	–	CC50 (Huh-7): dose-response value per replicate (Huh-7 cells [9]): 17.6; selectivity index (SI) (Huh-7 cells [10]): below 25
